From ChEMBL document CHEMBL1201862, “PubChem BioAssay data set” (2004)
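All cell lines were grown in 96-well plates and treated with compound for 48 hours. At the GI50, growth is halved.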 Calls of active or inactive are those of the source. Rule as the data show it: active = GI50 up to about 1.1 µM and inactive = higher.

Legend:
Assay in all cases: NCI tumour cell line growth inhibition, 48 h
SK-MEL-2 = system: SK-MEL-2
NCI/ADR-RES = system: NCI/ADR-RES
UACC-257 = system: UACC-257
SR = system: SR
HCT-15 = system: HCT-15
SN12C = system: SN12C
NCI-H522 = system: NCI-H522
MDA-MB-231 = system: MDA-MB-231
COLO 205 = system: COLO 205
MDA-MB-435 = system: MDA-MB-435
U-251 = system: U-251
NCI-H460 = system: NCI-H460
HCT-116 = system: HCT-116
SK-MEL-5 = system: SK-MEL-5
Malme-3M = system: Malme-3M
TK-10 = system: TK-10
UACC-62 = system: UACC-62
DU-145 = system: DU-145
MDA-N = system: MDA-N
CAKI-1 = system: CAKI-1
RXF 393 = system: RXF 393
ACHN = system: ACHN
SNB-19 = system: SNB-19
A549 = system: A549
RPMI-8226 = system: RPMI-8226
PC-3 = system: PC-3
Hs-578T = system: Hs-578T
OVCAR-8 = system: OVCAR-8
SK-MEL-28 = system: SK-MEL-28
KM12 = system: KM12
HT-29 = system: HT-29
MOLT-4 = system: MOLT-4
K562 = system: K562
SF-268 = system: SF-268
UO-31 = system: UO-31
M14 = system: M14
HOP-62 = system: HOP-62
EKVX = system: EKVX
BT-549 = system: BT-549
IGROV-1 = system: IGROV-1
LOX IMVI = system: LOX IMVI
OVCAR-5 = system: OVCAR-5
786-0 = system: 786-0
NCI-H226 = system: NCI-H226
MCF7 = system: MCF7
A498 = system: A498
SNB-75 = system: SNB-75
HOP-92 = system: HOP-92
T47D = system: T47D
OVCAR-4 = system: OVCAR-4
NCI-H23 = system: NCI-H23
HCC 2998 = system: HCC 2998
SF-295 = system: SF-295
CCRF-CEM = system: CCRF-CEM
SW-620 = system: SW-620
HL-60 = system: HL-60
OVCAR-3 = system: OVCAR-3
SK-OV-3 = system: SK-OV-3
SF-539 = system: SF-539

SMILES: ClC(Cl)(Cl)C(N1CCN(c2ccccc2)CC1)N1CCN(c2ccccc2)CC1
- GI50 (SK-MEL-2): > 100 µM (inactive)
- GI50 (NCI/ADR-RES): > 100 µM (inactive)
- GI50 (UACC-257): > 100 µM (inactive)
- GI50 (SR): 45 µM (inactive)
- GI50 (HCT-15): > 100 µM
- GI50 (SN12C): > 100 µM (inactive)
- GI50 (NCI-H522): > 100 µM (inactive)
- GI50 (MDA-MB-231): > 100 µM (inactive)
- GI50 (COLO 205): > 100 µM (inactive)
- GI50 (MDA-MB-435): > 100 µM (inactive)
- GI50 (U-251): > 100 µM (inactive)
- GI50 (NCI-H460): > 100 µM (inactive)
- GI50 (HCT-116): > 100 µM (inactive)
- GI50 (SK-MEL-5): > 100 µM (inactive)
- GI50 (Malme-3M): > 100 µM (inactive)
- GI50 (TK-10): > 100 µM (inactive)
- GI50 (UACC-62): > 100 µM (inactive)
- GI50 (DU-145): > 100 µM (inactive)
- GI50 (MDA-N): > 100 µM (inactive)
- GI50 (CAKI-1): > 100 µM (inactive)
- GI50 (RXF 393): > 100 µM (inactive)
- GI50 (ACHN): > 100 µM (inactive)
- GI50 (SNB-19): > 100 µM (inactive)
- GI50 (A549): > 100 µM (inactive)
- GI50 (RPMI-8226): > 100 µM (inactive)
- GI50 (PC-3): > 100 µM (inactive)
- GI50 (Hs-578T): > 100 µM (inactive)
- GI50 (OVCAR-8): > 100 µM (inactive)
- GI50 (SK-MEL-28): > 100 µM (inactive)
- GI50 (KM12): > 100 µM (inactive)
- GI50 (HT-29): > 100 µM (inactive)
- GI50 (MOLT-4): > 100 µM (inactive)
- GI50 (K562): > 100 µM (inactive)
- GI50 (SF-268): > 100 µM (inactive)
- GI50 (UO-31): > 100 µM (inactive)
- GI50 (M14): > 100 µM (inactive)
- GI50 (HOP-62): > 100 µM (inactive)
- GI50 (EKVX): > 100 µM (inactive)
- GI50 (BT-549): > 100 µM (inactive)
- GI50 (IGROV-1): > 100 µM (inactive)
- GI50 (LOX IMVI): > 100 µM (inactive)
- GI50 (OVCAR-5): > 100 µM (inactive)
- GI50 (786-0): > 100 µM (inactive)
- GI50 (NCI-H226): > 100 µM (inactive)
- GI50 (MCF7): > 100 µM (inactive)
- GI50 (A498): > 100 µM (inactive)
- GI50 (SNB-75): > 100 µM (inactive)
- GI50 (HOP-92): > 100 µM (inactive)
- GI50 (T47D): > 100 µM (inactive)
- GI50 (OVCAR-4): > 100 µM (inactive)

SMILES: CCC/N=C(/NC(=O)c1ccc(Cl)cc1)SC
- GI50 (SK-MEL-2): > 100 µM (inactive)
- GI50 (NCI-H23): 46.3 µM (inactive)
- GI50 (NCI/ADR-RES): > 100 µM (inactive)
- GI50 (UACC-257): 74.5 µM (inactive)
- GI50 (SR): 36.8 µM (inactive)
- GI50 (HCT-15): 47.9 µM
- GI50 (SN12C): > 100 µM (inactive)
- GI50 (NCI-H522): 52 µM (inactive)
- GI50 (MDA-MB-231): > 100 µM (inactive)
- GI50 (COLO 205): > 100 µM (inactive)
- GI50 (MDA-MB-435): > 100 µM (inactive)
- GI50 (HCC 2998): > 100 µM (inactive)
- GI50 (U-251): > 100 µM (inactive)
- GI50 (NCI-H460): 90.6 µM (inactive)
- GI50 (HCT-116): > 100 µM (inactive)
- GI50 (SK-MEL-5): 48.6 µM (inactive)
- GI50 (Malme-3M): > 100 µM (inactive)
- GI50 (SF-295): > 100 µM (inactive)
- GI50 (UACC-62): > 100 µM (inactive)
- GI50 (DU-145): > 100 µM (inactive)
- GI50 (MDA-N): > 100 µM (inactive)
- GI50 (CAKI-1): > 100 µM (inactive)
- GI50 (CCRF-CEM): > 100 µM (inactive)
- GI50 (RXF 393): > 100 µM (inactive)
- GI50 (ACHN): 39.8 µM (inactive)
- GI50 (SNB-19): 17.6 µM (inactive)
- GI50 (A549): > 100 µM (inactive)
- GI50 (SW-620): > 100 µM (inactive)
- GI50 (HL-60): 58.7 µM (inactive)
- GI50 (RPMI-8226): 26.5 µM (inactive)
- GI50 (PC-3): 80.5 µM (inactive)
- GI50 (Hs-578T): 12.1 µM (inactive)
- GI50 (OVCAR-8): > 100 µM (inactive)
- GI50 (SK-MEL-28): > 100 µM (inactive)
- GI50 (OVCAR-3): 0.0473 µM (active)
- GI50 (KM12): > 100 µM (inactive)
- GI50 (HT-29): 97.3 µM (inactive)
- GI50 (MOLT-4): 58.7 µM (inactive)
- GI50 (K562): 44.1 µM (inactive)
- GI50 (SF-268): 88.9 µM (inactive)
- GI50 (UO-31): 15 µM (inactive)
- GI50 (M14): > 100 µM (inactive)
- GI50 (HOP-62): > 100 µM (inactive)
- GI50 (EKVX): > 100 µM (inactive)
- GI50 (BT-549): 25.5 µM (inactive)
- GI50 (IGROV-1): > 100 µM (inactive)
- GI50 (SK-OV-3): > 100 µM (inactive)
- GI50 (LOX IMVI): > 100 µM (inactive)
- GI50 (OVCAR-5): > 100 µM (inactive)
- GI50 (786-0): > 100 µM (inactive)
- GI50 (NCI-H226): 43.1 µM (inactive)
- GI50 (MCF7): 75.9 µM (inactive)
- GI50 (SF-539): > 100 µM (inactive)
- GI50 (A498): 27.4 µM (inactive)
- GI50 (SNB-75): 11.4 µM (inactive)
- GI50 (T47D): 65.9 µM (inactive)
- GI50 (OVCAR-4): 50.9 µM (inactive)

SMILES: COC(=O)C1CC(C=[N+](C)C)=C(SC)N1 (centres undefined)
- GI50 (SK-MEL-2): > 100 µM (inactive)
- GI50 (NCI-H23): > 100 µM (inactive)
- GI50 (NCI/ADR-RES): > 100 µM (inactive)
- GI50 (UACC-257): > 100 µM (inactive)
- GI50 (SR): > 100 µM (inactive)
- GI50 (HCT-15): > 100 µM
- GI50 (NCI-H522): > 100 µM (inactive)
- GI50 (MDA-MB-231): > 100 µM (inactive)
- GI50 (COLO 205): > 100 µM (inactive)
- GI50 (MDA-MB-435): > 100 µM (inactive)
- GI50 (HCC 2998): > 100 µM (inactive)
- GI50 (U-251): > 100 µM (inactive)
- GI50 (NCI-H460): 98.2 µM (inactive)
- GI50 (HCT-116): > 100 µM (inactive)
- GI50 (SK-MEL-5): > 100 µM (inactive)
- GI50 (Malme-3M): > 100 µM (inactive)
- GI50 (TK-10): > 100 µM (inactive)
- GI50 (SF-295): > 100 µM (inactive)
- GI50 (UACC-62): > 100 µM (inactive)
- GI50 (DU-145): > 100 µM (inactive)
- GI50 (MDA-N): > 100 µM (inactive)
- GI50 (CAKI-1): > 100 µM (inactive)
- GI50 (RXF 393): > 100 µM (inactive)
- GI50 (ACHN): > 100 µM (inactive)
- GI50 (SNB-19): > 100 µM (inactive)
- GI50 (SW-620): > 100 µM (inactive)
- GI50 (RPMI-8226): > 100 µM (inactive)
- GI50 (PC-3): > 100 µM (inactive)
- GI50 (Hs-578T): > 100 µM (inactive)
- GI50 (OVCAR-8): > 100 µM (inactive)
- GI50 (SK-MEL-28): > 100 µM (inactive)
- GI50 (OVCAR-3): > 100 µM (inactive)
- GI50 (KM12): > 100 µM (inactive)
- GI50 (HT-29): > 100 µM (inactive)
- GI50 (MOLT-4): > 100 µM (inactive)
- GI50 (K562): > 100 µM (inactive)
- GI50 (SF-268): > 100 µM (inactive)
- GI50 (UO-31): > 100 µM (inactive)
- GI50 (M14): > 100 µM (inactive)
- GI50 (HOP-62): > 100 µM (inactive)
- GI50 (EKVX): > 100 µM (inactive)
- GI50 (BT-549): > 100 µM (inactive)
- GI50 (IGROV-1): > 100 µM (inactive)
- GI50 (SK-OV-3): > 100 µM (inactive)
- GI50 (OVCAR-5): > 100 µM (inactive)
- GI50 (786-0): > 100 µM (inactive)
- GI50 (MCF7): > 100 µM (inactive)
- GI50 (A498): > 100 µM (inactive)
- GI50 (SNB-75): > 100 µM (inactive)
- GI50 (HOP-92): > 100 µM (inactive)
- GI50 (T47D): > 100 µM (inactive)
- GI50 (OVCAR-4): > 100 µM (inactive)
